Patent publication US20240391965A1, “STAPLED ANTIMICROBIAL PEPTIDES (STAMPS) AND USES THEREOF” (Lytica Therapeutics, Inc., priority 2021, published 2024)
In brackets after ≈: the same amount, converted by molar mass. Starred links: 1 amine or outer side, 2 acyl side, 3 side chain; linkers in the order of their positions; H or OH if unused. Positions of bridges follow the written chain, without caps; N, C: chain ends. Residues, ends and D or L forms follow the SMILES beside them. 2,2'Bipyridine(5,5'-diCH2) = c1cc(-c2ccc(C[*:2])cn2)ncc1C[*:1]; Naphthalene(2,6-diCH2) = c1cc2cc(C[*:2])ccc2cc1C[*:1]; X1 = C(=CC[*:2])C[*:1]

How the values were obtained:
[1] = 48 hours cytotoxicity assay (CellTiter-Glo), liver toxicity; type: cell-based, human; details: 48 hours of incubation, CellTiter-Glo; read-out: Inhibitory Concentration at 50% Cytotoxicity (IC50) Human Liver Cells (HepG2)
Method in brief: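 Viability from CellTiter-Glo luminescence after StAMP dilution series or vehicle acted on HepG2 cells for 48 h at 37 °C. Cells were grown in EMEM plus 10% FBS and given 4 h to attach before dosing.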

[2] = tested on: Klebsiella pneumoniae (K. pneumoniae); type: cell-based; details: microbroth dilution, 20-24 hours at 37° C.
Procedure: (§1) Antimicrobial Activity Assay: The following microbroth dilution protocol was adapted from CLSI to determine the minimum inhibitory concentration (MIC) of StAMPs. Briefly, Mueller-Hinton broth (MHB) or cation-adjusted Mueller-Hinton broth (MHB II) was prepared and autoclaved. Then, a colony of bacterial cells was picked and grown overnight in broth at 37° C. and then diluted and allowed to grow again for 3-4 hours. Serial dilutions of peptide stocks in water (10 μl) were prepared using clear round-bottom polypropylene 96-well plates. Then 90 μl of bacteria in broth was added to give a final inoculum of 5×10^5 CFU/ml. The plates were then covered with porous tape to reduce evaporation and incubated for 20-24 hours at 37° C. The MIC was the minimum peptide concentration at which no visible bacterial growth was observed.

[3] = tested on: Pseudomonas aeruginosa (P. aeruginosa); type: cell-based; details: microbroth dilution, 20-24 hours at 37° C.
Procedure: as §1

[4] = tested on: Escherichia coli (E. coli); type: cell-based; details: microbroth dilution, 20-24 hours at 37° C.
Procedure: as §1

[5] = tested on: Acinetobacter baumannii (A. baumannii); type: cell-based; details: microbroth dilution, 20-24 hours at 37° C.
Procedure: as §1

[6] = tested on: Staphylococcus aureus (S. aureus); type: cell-based; details: microbroth dilution, 20-24 hours at 37° C.
Procedure: as §1

SMILES | IC50 [1] | Minimum Inhibitory Concentration (MIC) K. pneumoniae [2] | Minimum Inhibitory Concentration (MIC) P. aeruginosa [3] | Minimum Inhibitory Concentration (MIC) E. coli [4] | Minimum Inhibitory Concentration (MIC) A. baumannii [5] | Minimum Inhibitory Concentration (MIC) S. aureus [6]
CC[C@H](C)[C@H](NC(=O)CN)C(=O)N[C@@H](Cc1ccccc1)C(=O)N[C@@H](CO)C(=O)N[C@@H](CCCCN)C(=O)N[C@@H](CC(C)C)C(=O)N[C@H]1CSCC=CCSC[C@@H](C(=O)N[C@@H](CCCCN)C(=O)N[C@@H](CC(N)=O)C(=O)N[C@@H](CC(C)C)C(=O)N[C@@H](CC(C)C)C(=O)N[C@H](C(=O)N[C@@H](CO)C(=O)NCC(=O)N[C@@H](CC(C)C)C(=O)N[C@@H](CCCCN)C(=O)NCC(=O)N[C@@H](C)C(=O)N[C@@H](CCCCN)C(=O)O)[C@@H](C)CC)NC(=O)[C@H](CCCCN)NC(=O)[C@H](CCCCN)NC(=O)CNC1=O [compound 100] (H-GIFSKLCGKKCKNLLISGLKGAK-OH; linker 7-11 via X1) | > 200 µg/mL | >64 µg/mL | >64 µg/mL | 32 µg/mL | 16 µg/mL | >64 µg/mL
CC[C@H](C)[C@H](NC(=O)CN)C(=O)N[C@@H](Cc1ccccc1)C(=O)N[C@@H](CO)C(=O)N[C@@H](CCCCN)C(=O)N[C@@H](CC(C)C)C(=O)N[C@@H](C)C(=O)NCC(=O)N[C@@H](CCCCN)C(=O)N[C@@H](CCCCN)C(=O)N[C@H](C(=O)N[C@@H](CCCCN)C(=O)N[C@@H](CC(N)=O)C(=O)N[C@H]1CSCc2ccc3cc(ccc3c2)CSC[C@@H](C(N)=O)NC(=O)[C@H](CCCCN)NC(=O)[C@H](CC(C)C)NC(=O)CNC(=O)[C@H](CO)NC(=O)[C@H]([C@@H](C)CC)NC(=O)[C@H](CC(C)C)NC1=O)[C@@H](C)CC [compound 85] (H-GIFSKLAGKKIKNCLISGLKC-NH2; linker 14-21 via Naphthalene(2,6-diCH2); N-terminus assumed) | 87 µg/mL (≈ 36.7 µM) | 32 µg/mL | 16 µg/mL | 4 µg/mL | 4 µg/mL | 64 µg/mL
CC[C@H](C)[C@H](NC(=O)CN)C(=O)N[C@@H](Cc1ccccc1)C(=O)N[C@@H](CO)C(=O)N[C@@H](CCCCN)C(=O)N[C@@H](CC(C)C)C(=O)N[C@@H](C)C(=O)N[C@H]1CSCc2ccc(nc2)-c2ccc(cn2)CSC[C@@H](C(=O)N[C@H](C(=O)N[C@@H](CO)C(=O)NCC(=O)N[C@@H](CC(C)C)C(=O)N[C@@H](CCCCN)C(=O)NCC(N)=O)[C@@H](C)CC)NC(=O)[C@H](CC(C)C)NC(=O)[C@H](CC(N)=O)NC(=O)[C@H](CCCCN)NC(=O)[C@H]([C@@H](C)CC)NC(=O)[C@H](CCCCN)NC(=O)[C@H](CCCCN)NC1=O [compound 66] (H-GIFSKLACKKIKNLCISGLKG-NH2; linker 8-15 via 2,2'Bipyridine(5,5'-diCH2)) | 75 µg/mL (≈ 31.2 µM) | 16 µg/mL | 32 µg/mL | 8 µg/mL | 4 µg/mL | >64 µg/mL
CC[C@H](C)[C@H](NC(=O)CN)C(=O)N[C@@H](Cc1ccccc1)C(=O)N[C@@H](CO)C(=O)N[C@@H](CCCCN)C(=O)N[C@@H](CC(C)C)C(=O)N[C@@H](C)C(=O)NCC(=O)N[C@@H](CCCCN)C(=O)N[C@@H](CCCCN)C(=O)N[C@H](C(=O)N[C@H]1CSCc2ccc3cc(ccc3c2)CSC[C@@H](C(=O)N[C@@H](CCCCN)C(=O)NCC(N)=O)NC(=O)CNC(=O)[C@H](CO)NC(=O)[C@H]([C@@H](C)CC)NC(=O)[C@H](CC(C)C)NC(=O)[C@H](CC(C)C)NC(=O)[C@H](CC(N)=O)NC1=O)[C@@H](C)CC [compound 78] (H-GIFSKLAGKKICNLLISGCKG-NH2; linker 12-19 via Naphthalene(2,6-diCH2); N-terminus assumed) | 108 µg/mL (≈ 46.9 µM) | 64 µg/mL | 64 µg/mL | 16 µg/mL | 16 µg/mL | >64 µg/mL
CC[C@H](C)[C@H](NC(=O)CN)C(=O)N[C@@H](Cc1ccccc1)C(=O)N[C@@H](CO)C(=O)N[C@@H](CCCCN)C(=O)N[C@@H](CC(C)C)C(=O)N[C@@H](C)C(=O)NCC(=O)N[C@H]1CSCc2ccc(nc2)-c2ccc(cn2)CSC[C@@H](C(=O)N[C@@H](CO)C(=O)NCC(=O)N[C@@H](CC(C)C)C(=O)N[C@@H](CCCCN)C(=O)NCC(N)=O)NC(=O)[C@H](CC(C)C)NC(=O)[C@H](CC(C)C)NC(=O)[C@H](CC(N)=O)NC(=O)[C@H](CCCCN)NC(=O)[C@H]([C@@H](C)CC)NC(=O)[C@H](CCCCN)NC1=O [compound 71] (H-GIFSKLAGCKIKNLLCSGLKG-NH2; linker 9-16 via 2,2'Bipyridine(5,5'-diCH2); N-terminus assumed) | 360 µg/mL (≈ 155 µM) | >64 µg/mL | >64 µg/mL | 64 µg/mL | 32 µg/mL | >64 µg/mL
CC[C@H](C)[C@H](NC(=O)CN)C(=O)N[C@@H](Cc1ccccc1)C(=O)N[C@@H](CO)C(=O)N[C@@H](CCCCN)C(=O)N[C@@H](CC(C)C)C(=O)N[C@@H](C)C(=O)NCC(=O)N[C@@H](CCCCN)C(=O)N[C@@H](CCCCN)C(=O)N[C@H](C(=O)N[C@H]1CSCc2ccc(nc2)-c2ccc(cn2)CSC[C@@H](C(=O)N[C@@H](CCCCN)C(=O)NCC(N)=O)NC(=O)CNC(=O)[C@H](CO)NC(=O)[C@H]([C@@H](C)CC)NC(=O)[C@H](CC(C)C)NC(=O)[C@H](CC(C)C)NC(=O)[C@H](CC(N)=O)NC1=O)[C@@H](C)CC [compound 80] (H-GIFSKLAGKKICNLLISGCKG-NH2; linker 12-19 via 2,2'Bipyridine(5,5'-diCH2); N-terminus assumed) | 49 µg/mL (≈ 21 µM) | >64 µg/mL | >64 µg/mL | 32 µg/mL | 32 µg/mL | >64 µg/mL
